Experimental data: patent US6222035A, “[1,2,4] triazolo [1,5-C] pyrimidine derivatives” (Kyowa Hakko Kogyo Co., Ltd., priority 1997, dated 2001)
Counter-ions that a name gives are not always drawn.

Experiments:
[1] = test system: clonidine-induced aggressive behavior in mice; assay: Activity on Clonidine-induced Aggressive Behavior; format: in vivo, mouse (male ddY); details: 10 mg/kg po
Experimental: Activity on Clonidine-induced Aggressive Behavior
Effect of test compounds to increase aggressive behavior induced by the intraperitoneal injection of clonidine [European Journal of Pharmacology, 29: 374 (1968)] was examined.
This test was carried out using 2 animals per group of male ddY mice of 20 to 25 g in body weight (Japan SLC). Each test compound was used by mixing it with Tween 80 and then suspending it in distilled water for injection (manufactured by Otsuka Pharmaceutical), and clonidine hydrochloride (manufactured by Sigma Co.) was used by dissolving it in physiological saline (manufactured by Otsuka Pharmaceutical). […] The number of aggressive behavior of each mouse was measured for 30 minutes immediately after the administration of clonidine. The effect was judged by comparing values of the number of aggressive behavior in the control and those in test compound-administered groups (significance test: Student t-test).

adenosine A2A receptor = molecular target: T1, adenosine A2A receptor (Rattus norvegicus, UniProt P30543); assay: Adenosine receptor binding activity (adenosine A2A receptor binding test), 3H-CGS 21680 binding; details: 2 h, read-out: A2A receptor inhibition ratio (%); for inhibition at 0.1 µM: 10^-7 M; for inhibition at 0.01 µM: 10^-8 M
T1 construct: from tissue; host or cells: rat corpus striatum, washed membrane suspension
Procedure, shortened: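 Rat corpus striatum membranes (5 mg wet tissue/mL in 50 mM Tris-HCl pH 7.7, 10 mM MgCl2, adenosine deaminase) incubated with 4.0 nM 3H-CGS 21680 and test compound for 120 min at 25 °C, then filtered and counted. Nonspecific binding defined with 100 μM CPA; % inhibition of specific binding calculated.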

[2] = test system: CGS 21680-induced catalepsy in mice; assay: Activity on CGS 21680-induced Catalepsy; format: in vivo, mouse (male ddY); details: 10 mg/kg oral; for Total score (catalepsy): 10 animals, maximum 50 points, control 48; for Number of Animals showing remission: catalepsy score 4 points or less in 10 cases; for inhibition in vivo at 10 mg/kg: Mus musculus, CGS 21680-induced catalepsy, read-out: Remission ratio (%)
Procedure, shortened: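 Male ddY mice (5 weeks, 10 per group) received CGS 21680 10 μg/20 μl intracerebroventricularly; test compounds given orally at 10 mg/kg in 0.3% Tween 80 suspension. Catalepsy scored 1 h after dosing on a 4.5 cm bar; total group score (maximum 50) compared with control; ≤4 per animal counted as remission.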

[3] = test system: haloperidol-induced catalepsy in mice; assay: Activity on haloperidol-induced Catalepsy; format: in vivo, mouse (male ddY); details: 10 mg/kg oral
Experimental: Activity on haloperidol-induced Catalepsy
Parkinson's disease is a disease based on the degeneration and cell death of the nigrostriatal dopaminergic neuron. When haloperidol (dopamine D1/D2 antagonist) is administered, catalepsy is induced by the block of postsynaptic D2 receptor. This haloperidol-induced catalepsy is known as a classic model in which symptoms of Parkinson's disease are produced by drug administration [European Journal of Pharmacology, 182: 327 (1990) and U.S. Pat. No. 3,991,207].
This test was carried out using 10 animals per group of male ddY mice of 5 week age (22 to 24 g in body weight, Japan SLC). Haloperidol (manufacturedby Janssen) was suspended in 0.3% CMC and administered intraperitoneally into mice at a dose of 1.0 mg/kg. Each test compound was used by mixing it with Tween 80 and then suspending it in distilled water for injection (manufactured by Otsuka Pharmaceutical). Also, L-DOPA (manufactured by Kyowa Hakko Kogyo Co., Ltd.) and benserazide HCl (manufactured by Kyowa Hakko Kogyo Co., Ltd.) were used by suspending them in 0.3% CMC. […] All of the test compounds were administered orally in a dose of 10 mg/kg, and 100 mg/kg of L-DOPA and 25 mg/kg of benserazide were used in combination as a control drug and administered by intraperitoneal injection. The catalepsy score was evaluated by the judging criteria shown in the above-described Table 3.
The effect was judged by total catalepsy scores of 10 animals in one group (the maximum is 50 points). When the total score was 40 points or less, the activity of drugs was judged positive. The number of animals showing remission of catalepsy was expressed by the number of cases in which the catalepsy score was 4 points or less in 10 cases. The catalepsy remission ratio was expressed as the percentage of the total score in the test compound-administered group to the total score in the control group.

[4] = test system: learned helplessness model in rats; assay: Activity in Learned Helplessness (LH) Model; format: in vivo, rat (male SD); details: 5.0 mg/kg po, electric shock (IES) loaded, Average % ± SE
Experimental: Activity in Learned Helplessness (LH) Model
As experimental animals, 10 to 15 animals per group of SD male rats (220 to 320 g in body weight, 7 week age, Charles River Japan, Atsugi) were used. During the preliminary feeding period, they were allowed to have feed (CRF-1, Oriental Yeast, Tokyo) and water (tap water) freely in an animal room at a room temperature of 22 to 24° C. and a humidity of 50 to 60%. The test compound was orally administered in a dose of 2 ml/kg and 1 hour before FR 1 (fixed ratio schedule 1: repetition of fixed trial conditions) on the second day of the test.
2) Preparation of Learned Helplessness Model
A shuttle box apparatus (TK-401S; manufactured by UNICOM, Chiba) was used as the learning test apparatus. […]
On the second day, a shuttle box test was carried out by slightly modifying the method of Maier et al. [J. Comp. […] The escape reaction was judged success when both of the two escape times in FR 2 were less than 10 seconds, and the escape response was calculated by the following formula: "the number of trials of successful escape/15×100=escape response (%)" Further, migration in the box other than the escape reaction observed during a period between trials (resting time) was used as an index of psychomotor stimulant action by calculating "total number of migration in the box/15×100=intertrial response (%)" […]

[5] = test system: common marmoset MPTP-treated Parkinson's disease model; assay: Activity in a Parkinson's Disease Model (common marmoset treated with MPTP); format: in vivo
[6] = test system: immobility time in forced swimming of mice; assay: Forced Swimming Method (measurement of immobility time); format: in vivo, mouse (male ddY); details: 10 mg/kg oral, Steel-test vs solvent control
Experimental: Forced Swimming Method (measurement of immobility time)
Ten animals per group of ddY male mice (21 to 26 g in body weight, Japan SLC) were used as the experimental animal. During the preliminary feeding period, they were allowed to have feed and water freely in an animal room of a room temperature of 23±1° C. and a humidity of 55±5%. […] The drugs to be tested were suspended in a 0.3% Tween 80 solution and orally administered one hour before the test. In the negative control group, 10 ml/kg of the 0.3% Tween 80 solution alone was orally administered. Measurement of immobility time was carried out in accordance with the method of Porsolt [Arch. int Pharmacodyn., 229: 327-336 (1977)]. That is, a cylindrical transparent acrylic water tank (10 cm in diameter and 25 cm in height) was filled with 9 cm in depth of water having a temperature of 23±1° C., and mice were forced to swim for 6 minutes. When mice are put into water, they immediately start to swim trying to escape from the tank, but the motion gradually decreases 1 to 2 minutes thereafter. […] In order to reduce effects of daily rhythm, the test was carried out by using 5 of the 10 animals per group in the morning, and the remaining 5 animals in the afternoon. Further, measurement of immobility time was carried out by observing 2 animals at the same time and by not telling the observers distinctions about the solvent-administered group and doses of administered test drugs. Statistical analysis of the results was carried out by a multiple comparison test of the solvent-administered control group and each of the test drug-administered groups by Steel-test.

T1 sequence (P30543 whole entry): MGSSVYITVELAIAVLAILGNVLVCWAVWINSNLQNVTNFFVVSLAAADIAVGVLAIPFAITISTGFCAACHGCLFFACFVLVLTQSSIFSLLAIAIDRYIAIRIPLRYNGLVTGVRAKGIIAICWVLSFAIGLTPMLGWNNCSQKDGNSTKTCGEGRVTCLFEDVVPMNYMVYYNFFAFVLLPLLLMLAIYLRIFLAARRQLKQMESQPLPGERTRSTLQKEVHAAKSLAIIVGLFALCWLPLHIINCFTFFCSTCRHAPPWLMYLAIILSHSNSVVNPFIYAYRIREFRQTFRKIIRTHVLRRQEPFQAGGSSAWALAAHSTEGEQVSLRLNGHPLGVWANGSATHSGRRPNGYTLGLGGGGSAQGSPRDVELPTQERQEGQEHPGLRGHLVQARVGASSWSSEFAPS

| Compound | Number of attacks in test compound group/number of attacks in control group [1] | Number of attacks (count; average ± S.E.M.), test compound group ([1]; *: p < 0.05, 10 animals) [count] | inhibition at 0.1 µM (adenosine A2A receptor) [%] | inhibition at 0.01 µM (adenosine A2A receptor) [%] | Total score (catalepsy) [2] | Number of Animals showing remission [2] | inhibition in vivo at 10 mg/kg [2] [%] | Total score (catalepsy) ([3]; 10 animals, maximum 50 points, control 50) | Number of Animals showing remission ([3]; catalepsy score 4 points or less in 10 cases) | Remission ratio (%) ([3]; haloperidol-induced catalepsy) | Intertrial response [4] [%] | Escape response ([4]; **: p < 0.01 vs loaded control) [%] | Total spontaneous motor count ([5]; FIG. 2, common marmoset treated with MPTP) | Efficacy in the common marmoset MPTP-treated Parkinson's disease model ([5]; total Parkinson's disease symptom score and locomotor count vs vehicle) | Immobility time-shortening activity [6] |
| --- | --- | --- | --- | --- | --- | --- | --- | --- | --- | --- | --- | --- | --- | --- | --- |
| CN1CCN(c2cc3nc(-c4ccco4)nn3c(N)n2)CC1 [Compound 40, 5-Amino-2-(2-furyl)-7-(4-methylpiperazinyl)[1,2,4]triazolo[1,5-c]pyrimidine] | 7.6 | 22.00 ± 6.44 | 50 | 11 | 20 | 10 | 56 | 18 | 7 | 64 |  |  |  |  |  |
| Nc1nc(N2CCN(C(=O)c3ccccc3)CC2)cc2nc(-c3ccco3)nn12 [Compound 45, 5-Amino-7-(4-benzoylpiperazinyl)-2-(2-furyl)[1,2,4]triazolo[1,5-c]pyrimidine] |  |  |  |  |  |  |  |  |  |  | 6.7 ± 3.8 | 64 ± 9.8 |  |  |  |
| Nc1nc(N2CCN(CCCc3ccccc3)CC2)cc2nc(-c3ccco3)nn12 [Compound 63, 5-Amino-2-(2-furyl)-7-[4-(3-phenylpropyl)piperazinyl][1,2,4]triazolor[1,5-c]pyrimidine] |  |  | 82 | 31 | 7 | 10 | 84 |  |  |  |  |  | increase | effective |  |
| Nc1nc(N2CCN(C/C=C/c3ccccc3)CC2)cc2nc(-c3ccco3)nn12 [Compound 88, 5-Amino-7-(4-trans-cinnamylpiperazinyl)-2-(2-furyl)[1,2,4]triazolo[1,5-c]pyrimidine] |  |  | 57 |  | 0 | 10 | 98 |  |  |  |  |  |  |  | Significant immobility time-shortening activity was observed |
| Nc1nc(N2CCN(CC#Cc3ccccc3)CC2)cc2nc(-c3ccco3)nn12 [Compound 89, 5-Amino-2-(2-furyl)-7-(4-(3-phenylpropargyl)piperazinyl)[1,2,4]triazolo[1,5-c]pyrimidine hydrochloride] |  |  | 52 |  | 15 | 10 | 68 |  |  |  |  |  |  |  | Significant immobility time-shortening activity was observed |
| CC(C)NC(=O)c1cnc(N)n2nc(-c3ccco3)nc12 [Compound 165, 5-Amino-2-(2-furyl)-8-isopropylcarbamoyl[1,2,4]triazolo[1,5-c]pyrimidine] |  |  | 103 |  | 13 | 9 | 74 |  |  |  |  |  |  |  | Significant immobility time-shortening activity was observed |
| CNC(=O)c1cnc(N)n2nc(-c3ccco3)nc12 [Compound 167, 5-Amino-2-(2-furyl)-8-methylcarbamoyl[1,2,4]triazolo[1,5-c]pyrimidine] |  |  | 90 |  | 9 | 10 | 82 |  |  |  |  |  |  |  | Significant immobility time-shortening activity was observed |
